Assay results published in ChEMBL document CHEMBL5154822, “Novel inhibitors of AChE and Aβ aggregation with neuroprotective properties as lead compounds for the treatment of Alzheimer's disease” (Eur J Med Chem, 2022).
Calls of active or inactive are those of the source. The rule behind the calls is not given here.

Columns and labels:
Acetylcholinesterase [1] = molecular target: T1, Acetylcholinesterase (Mus musculus, UniProt P21836); assay: Inhibition of AChE in mouse cerebral cortex using acetylthiocholine iodide as substrate preincubated for 10 mins followed by substrate addition and measured for 180 secs by Ellman's spectrophotometric method; type: tissue-based
T1 sequence (P21836 whole entry): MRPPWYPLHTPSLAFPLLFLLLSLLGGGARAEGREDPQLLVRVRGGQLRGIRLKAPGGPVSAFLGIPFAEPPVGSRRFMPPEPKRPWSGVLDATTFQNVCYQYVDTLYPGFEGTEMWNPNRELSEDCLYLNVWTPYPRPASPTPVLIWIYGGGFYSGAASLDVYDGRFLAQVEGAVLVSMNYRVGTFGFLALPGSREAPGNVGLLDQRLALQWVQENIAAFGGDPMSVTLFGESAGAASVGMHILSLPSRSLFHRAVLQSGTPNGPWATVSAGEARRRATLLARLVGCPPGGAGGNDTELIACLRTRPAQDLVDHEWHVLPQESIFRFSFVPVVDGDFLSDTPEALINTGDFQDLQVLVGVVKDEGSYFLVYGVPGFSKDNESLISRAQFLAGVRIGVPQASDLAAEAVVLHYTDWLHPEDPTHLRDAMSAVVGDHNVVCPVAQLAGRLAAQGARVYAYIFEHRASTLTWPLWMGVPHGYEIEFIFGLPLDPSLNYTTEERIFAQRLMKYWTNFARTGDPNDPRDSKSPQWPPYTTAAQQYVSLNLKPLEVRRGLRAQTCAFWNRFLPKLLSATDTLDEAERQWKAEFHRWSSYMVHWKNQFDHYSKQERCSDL

Mus musculus [2] = assay: In vivo inhibition of AChE in ICR mouse hippocampus using acetylthiocholine iodide as substrate at 10 mg/kg, ig measured after 1 hr by microplate reader analysis; type: functional, organism-based
SH-SY5Y [3] = assay: Neuroprotective activity in human SH-SY5Y cells assessed as inhibition of okadaic acid-induced mitochondrial dysfunction by measuring increase in red-to-green fluorescence intensity ratio pretreated for 24 hrs followed by okadaic acid addition for 24 hrs by JC-1 dye based fluorescence analysis; type: functional, cell-based; conditions: dose 0.5-5 µM, time 48.0 hrs, DDE = dose-dependent effect
SH-SY5Y [4] = assay: Neuroprotective activity in human SH-SY5Y differentiated neuronal cells assessed as inhibition of GA-induced neurite shortening by measuring increase in axon length at 0.5 uM by laser confocal microscope; type: functional, cell-based
Mus musculus [5] = assay: Antialzheimer activity against scopolamine-induced cognitive deficit ICR mouse model assessed as improvement in memory impairment by measuring reduction in number of errors at 5 mg/kg, ig by step-through passive avoidance test; type: functional, organism-based
Mus musculus [6] = assay: In vivo inhibition of AChE in ICR mouse cerebral cortex using acetylthiocholine iodide as substrate at 10 mg/kg, ig measured after 1 hr by microplate reader analysis; type: functional, organism-based
SH-SY5Y [7] = assay: Neuroprotective activity in human SH-SY5Y differentiated neuronal cells assessed as inhibition of GA-induced axon morphology defects at 0.5 uM by laser confocal microscope; type: functional, cell-based
[8] = Cytotoxicity against human SH-SY5Y cells assessed as maximum non-cytotoxic concentration by CellTiter-Glo luminescent assay; type: toxicity, cell-based; conditions: read-out: MNCC
SH-SY5Y [9] = assay: Antioxidant activity against okadaic acid-induced ROS generation in human SH-SY5Y cells assessed as reduction in DCF fluorescence intensity at 5 uM pretreated for 24 hrs followed by okadaic acid addition for 24 hrs by DCFH-DA dye based fluorescence analysis; type: functional, cell-based; conditions: time 48.0 hrs
SH-SY5Y [10] = assay: Neuroprotective activity in human SH-SY5Y differentiated neuronal cells assessed as inhibition of GA-induced cell death by measuring increase in cell viability at 0.5 to 5 uM measured after 24 hrs by MTT assay; type: functional, cell-based; conditions: dose 0.5-5 µM
[11] = Ratio of drug concentration in brain to plasma in ICR mouse at 1 mg/kg, ig measured after 0.25 hrs by LC/MS-MS analysis; type: ADME, organism-based; conditions: po, read-out: BPR
[12] = Drug concentration in ICR mouse plasma at 1 mg/kg, ig measured after 1 hr by LC/MS-MS analysis; type: ADME, organism-based; conditions: po
Acetylcholinesterase [13] = molecular target: T1, Acetylcholinesterase; assay: Mixed-type inhibition of AChE in mouse cerebral cortex using acetylthiocholine iodide as substrate by double reciprocal Lineweaver-Burk plot analysis; type: tissue-based
[14] = Ratio of drug concentration in brain to plasma in ICR mouse at 1 mg/kg, ig measured after 0.5 hrs by LC/MS-MS analysis; type: ADME, organism-based; conditions: po, read-out: BPR
[15] = Drug concentration in ICR mouse brain at 1 mg/kg, ig measured after 0.5 hrs by LC/MS-MS analysis; type: ADME, organism-based; conditions: po, read-out: Ct
[16] = Drug concentration in ICR mouse brain at 1 mg/kg, ig measured after 4 hrs by LC/MS-MS analysis; type: ADME, organism-based; conditions: po, read-out: Ct
[17] = Ratio of drug concentration in brain to plasma in ICR mouse at 1 mg/kg, ig measured after 4 hrs by LC/MS-MS analysis; type: ADME, organism-based; conditions: po, read-out: BPR
[18] = Drug concentration in ICR mouse plasma at 1 mg/kg, ig measured after 2 hrs by LC/MS-MS analysis; type: ADME, organism-based; conditions: po
[19] = Drug concentration in ICR mouse plasma at 1 mg/kg, ig measured after 4 hrs by LC/MS-MS analysis; type: ADME, organism-based; conditions: po
[20] = Ratio of drug concentration in brain to plasma in ICR mouse at 1 mg/kg, ig measured after 2 hrs by LC/MS-MS analysis; type: ADME, organism-based; conditions: po, read-out: BPR
[21] = Drug concentration in ICR mouse plasma at 1 mg/kg, ig measured after 0.25 hrs by LC/MS-MS analysis; type: ADME, organism-based; conditions: po
[22] = Drug concentration in ICR mouse plasma at 1 mg/kg, ig measured after 0.5 hrs by LC/MS-MS analysis; type: ADME, organism-based; conditions: po
[23] = Drug concentration in ICR mouse brain at 1 mg/kg, ig measured after 0.25 hrs by LC/MS-MS analysis; type: ADME, organism-based; conditions: po, read-out: Ct
[24] = Drug concentration in ICR mouse brain at 1 mg/kg, ig measured after 2 hrs by LC/MS-MS analysis; type: ADME, organism-based; conditions: po, read-out: Ct
[25] = Drug concentration in ICR mouse brain at 1 mg/kg, ig measured after 1 hr by LC/MS-MS analysis; type: ADME, organism-based; conditions: po, read-out: Ct
[26] = Ratio of drug concentration in brain to plasma in ICR mouse at 1 mg/kg, ig measured after 1 hr by LC/MS-MS analysis; type: ADME, organism-based; conditions: po, read-out: BPR

COc1cc2c(cc1OC)S(=O)(=O)C(CC1CCN(Cc3ccc(F)cc3)CC1)C2 (stereo unspecified)
IC50 (Acetylcholinesterase [1]): 11.3 nM

COc1cc2c(cc1OC)S(=O)(=O)C(CC1CCN(Cc3c(F)cc(F)cc3F)CC1)C2 (stereo unspecified)
IC50 (Acetylcholinesterase [1]): 128 nM

COc1cc2c(cc1OC)S(=O)(=O)C(CC1CCN(Cc3ccccc3F)CC1)C2 (stereo unspecified)
IC50 (Acetylcholinesterase [1]): 11.5 nM

COc1cc2c(cc1OC)S(=O)(=O)C(CC1(F)CCN(Cc3cccc(F)c3)CC1)C2 (stereo unspecified)
IC50 (Acetylcholinesterase [1]): 5.1 nM

COc1cc2c(cc1OC)S(=O)(=O)C(CC1CCN(Cc3cccc(F)c3)CC1)C2 (stereo unspecified)
IC50 (Acetylcholinesterase [1]): 4.4 nM

COc1cc2c(cc1OC)S(=O)(=O)C(CC1(F)CCN(Cc3cccc(Cl)c3)CC1)C2 (stereo unspecified)
IC50 (Acetylcholinesterase [1]): 5 nM

COc1cc2c(cc1OC)S(=O)(=O)C(CC1(F)CCN(Cc3cccc(C)c3)CC1)C2 (stereo unspecified)
IC50 (Acetylcholinesterase [1]): 3.8 nM

COc1cc2c(cc1OC)S(=O)(=O)C(CC1CCN(Cc3ccc(F)c(Cl)c3)CC1)C2 (stereo unspecified)
IC50 (Acetylcholinesterase [1]): 11.5 nM

COc1cc2c(cc1OC)S(=O)(=O)/C(=C\C1CCN(Cc3ccccc3)CC1)C2
IC50 (Acetylcholinesterase [1]): 11.1 nM

COc1cc2c(cc1OC)S(=O)(=O)C(CC1(F)CCN(Cc3ccc(F)cc3)CC1)C2 (stereo unspecified)
IC50 (Acetylcholinesterase [1]): 11.3 nM

COc1cc2c(cc1OC)S(=O)(=O)C(CC1CCN(Cc3ccccc3)CC1)C2 (stereo unspecified)
IC50 (Acetylcholinesterase [1]): 4.4 nM

COc1cc2c(cc1OC)S(=O)(=O)C(CC1(F)CCN(Cc3ccccc3)CC1)C2 (stereo unspecified)
IC50 (Acetylcholinesterase [1]): 4.1 nM

COc1cc2c(cc1OC)C(=O)C(CC1CCN(Cc3ccccc3)CC1)C2 (stereo unspecified) [DONEPEZIL]
inhibition (Mus musculus [2]): Active
Activity (SH-SY5Y [3]): Dde
Activity (SH-SY5Y [4]): Active
Activity (Mus musculus [5]): Active
inhibition (Mus musculus [6]): Active
Activity (SH-SY5Y [7]): Active
MNTC [8]: 100 µM
Activity (SH-SY5Y [9]): Active
Activity (SH-SY5Y [10]): Active

COc1cc2c(cc1OC)S(=O)(=O)/C(=C/C1CCN(Cc3ccccc3)CC1)CC2
IC50 (Acetylcholinesterase [1]): 1820 nM

COc1cc2c(cc1OC)S(=O)(=O)C(F)(CC1CCN(Cc3cccc(F)c3)CC1)C2 (stereo unspecified)
Kp at 0.25 h [11]: 4.17
concentration at 1 h [12]: 3.48 ng/mL
Ki (Acetylcholinesterase [13]): 0.4 nM
Kp at 0.5 h [14]: 5.24
concentration at 0.5 h [15]: 18.1 ng/mL
concentration at 4 h [16]: 21.7 ng/mL
Kp at 4 h [17]: 8.47
MNTC [8]: 10 µM
concentration at 2 h [18]: 2.59 ng/mL
IC50 (Acetylcholinesterase [1]): 2.4 nM
concentration at 4 h [19]: 2.7 ng/mL
Kp at 2 h [20]: 8.4
concentration at 0.25 h [21]: 2.89 ng/mL
concentration at 0.5 h [22]: 3.42 ng/mL
concentration at 0.25 h [23]: 10.6 ng/mL
concentration at 2 h [24]: 21.8 ng/mL
concentration at 1 h [25]: 21.9 ng/mL
Kp at 1 h [26]: 6.33

COc1cc2c(cc1OC)S(=O)(=O)C(CC1(F)CCN(Cc3ccccc3F)CC1)C2 (stereo unspecified)
IC50 (Acetylcholinesterase [1]): 8.5 nM
